Test results as given in patent US9358276B2, “Methods of diagnosing and treating small intestinal bacterial overgrowth (SIBO) and SIBO-related conditions” (Cedars-Sinai Medical Center, priority 1999, dated 2016).

Experiments:
intestinal transit = assay: Intestinal transit in multi-fistulated dogs, cumulative % recovery of 99mTc-DTPA; format: in vivo, dog; conditions: for Effect of 5-HT delivered to distal gut on intestinal transit time: n = 2 dogs
Excerpt: The experiments described below are based on a previously described chronic multi-fistulated dog model, employing surgically fistulated male or female mongrel dogs weighing about 25 kg each. (Lin, H. C. et al., Inhibition of gastric emptying by glucose depends on length of intestine exposed to nutrient, Am. J. Physiol. 256:G404-G411 [1989]). The small intestines of the dogs were each about 300 cm long from the pylorus to the ileal-cecal valve. The duodenal fistula was situated 15 cm from the pylorus; the mid-gut fistula was situated 160 cm from the pylorus. Occluding Foley catheters (balloon catheters that are inflated to produce a water-tight seal with the lumenal surface) were placed into the distal limb of a duodenal fistula and a mid-gut fistula, fat or other test agents were administered lumenally to the thus compartmentalized Aproximal≅ section of the gut, i.e., between the fistulas, or to the compartmentalized Adistal≅ section of the gut, i.e., beyond the mid-gut fistula. Perfusate was pumped into a test section through the catheter at a rate of 2 mL/minute. Test agents were administered along with buffer perfusate, but some test agents were administered intravenously, where specifically noted.
Intestinal transit measurements were made by tracking the movement of a liquid marker across the approximately 150 cm intestinal test segment by delivering about 20 μCi ^99mTc chelated to diethyltriamine pentaacetic acid (DTPA)(Cunningham, K. M. et al., Use of technicium-99m (V)thiocyanate to measure gastric emptying of fat, J. Nucl. Med. 32:878-881 [1991]) as a bolus into the test segment after 60 minutes of a 90-minute perfusion. The output from the mid-gut fistula was collected every 5 min thereafter for 30 minutes, which period is illustrated in FIGS. 9-23. Using a matched dose of ^99mTc to represent the original radioactivity (Johansson, C., Studies of gastrointestinal interactions, Scand. J. Gastroenterol. 9(Suppl 28):1-60 [1974]; Zierler, K., A simplified explanation of the theory of indicator dilution for measurement of fluid flow and volume and other distributive phenomena, Bull. John Hopkins 103:199-217 [1958]), the radioactivity delivered into the animal as well as the radioactivity of the recovered fistula output were all measured using a gamma well counter. After correcting all counts to time zero, intestinal transit was calculated as the cumulative percent recovery of the delivered ^99mTc-DTPA. This method has been well validated over the years and appreciated for its advantage of minimal inadvertent marker loss. […] There was a very high level of marker recovery, with 90% of the marker recovered by 30 minutes and 98% of the marker recovered by 45 minutes.

[1] = tested on: release of 5-HT from the proximal gut; assay: 5-HT released by the proximal gut (ELISA of mid-gut fistula output); format: in vivo, dog; conditions: 5-HT 0.05 mg/kg/h to distal gut; control 156 μg; n=1
Procedure: To test the hypothesis that fat in the distal gut causes the release of 5-HT in the proximal gut, the amount of 5-HT collected from the output of the mid-gut fistula (proximal gut 5-HT) over a 90-minute period of buffer perfusion through both the duodenal and mid-gut fistulas (2 mL/min); buffer (control) or oleate (60 mM) was administered to the distal gut (n=1). The amount of 5-HT was determined using an ELISA kit specific for 5-HT (Sigma; Graham-Smith, D. G., The carcinoid syndrome, In: Topics in Gastroenterology, Truclove, S. C. and Lee, E. (eds.), Blackwells, London, p. 275 [1977]; Singh, S. M. et al., Concentrations of serotonin in plasma-a test for appendicitis?, Clin. Chem. 34:2572-2574 [1988]). The amount of 5-HT released by the proximal gut increased in response to fat in the distal gut from 100 μg in the control (buffer minus oleate) to 338 μg (buffer plus oleate to distal gut), showing that 5-HT is released in the proximal gut in response to fat in the distal gut. Thus, the release of 5-HT by the proximal gut can serve as a relayed signal for fat in the distal gut. The relayed release of 5-HT in the proximal gut in response to fat in the distal gut is consistent with Example 14(2), showing that slowing of intestinal transit by fat depends on an efferent 5-HT-mediated pathway to the proximal gut.
To test the hypothesis that 5-HT in the distal gut causes the release of 5-HT in the proximal gut, the amount of 5-HT collected from the output at the mid-gut fistula (Proximal gut 5-HT) over a 90-minute period of buffer perfusion through both the duodenal and mid-gut fistulas (2 mL/min each) was compared in the presence or absence of 5-HT (0.05 mg/kg/h) administered to the distal gut (n=1). 5-HT concentration was determined using an ELISA kit specific for 5-HT (Sigma). The amount of 5-HT released by the proximal gut increased from 156 μg in the control (minus distal 5-HT) to 450 μg (plus 5-HT to distal gut), implying that 5-HT is released by the proximal gut in response to 5-HT in the distal gut. Thus, the release of 5-HT by the proximal gut can serve as a relayed signal for distal gut 5-HT. This relayed release of 5-HT in the proximal gut explains the results of Example 14(6) showing that the slowing of intestinal transit by distal gut 5-HT was abolished by ondansetron in the proximal gut (efferent limb of response) as well as in the distal gut (afferent limb of response).
To test the hypothesis that the proximal gut releases 5-HT in response to lipid in the distal gut, we compared the amount of 5-HT in the output of the midgut fistula (i.e., proximal gut 5-HT) with buffered saline (control) or oleate in the distal gut. The amount of 5-HT collected over 90 min was measured using a 5-HT-specific ELISA test kit, as described herein above. Four dogs were tested.
The amount of 5-HT released from the proximal gut in response to intravenous PYY or buffered saline (Control) during buffer perfusion (2 mL/min over 90 minutes) through both the duodenal and mid-gut fistulas was measured to test the hypothesis that intravenous PYY (0.8 mg/kg/h) causes the release of 5-HT in the proximal gut. 5-HT was measured as in Example 14(9) above. The amount of 5-HT released by the proximal gut increased from 140.1 μg (Control) to 463.1 μg in response to intravenous PYY.

SIBO [2] = assay: Comparison of antibiotic regimes for eradicating SIBO, follow-up lactulose breath hydrogen test (LBHT); format: in vivo, human; conditions: for % Patients with SIBO Eradicated: follow-up LBHT
Procedure: Subjects were tested after an overnight fast. […] Each breath sample was then analyzed for hydrogen content with a gas chromatograph (Quintron Model DP, Quintron Instrument Co., Division of E.F. Brewer Co, Menomonee Falls, Wis. 53051), standardized using a QuinGas standard as instructed by the manufacturer. Hydrogen peaks were plotted before and after an antimicrobial treatment regimen for comparison. The normal range for the second hydrogen peak was 0 to 20 ppm. Subjects referred to the Cedars-Sinai GI Motility Program for a lactulose breath hydrogen test (LBHT) to assess SIBO were entered into a database. Those that tested positive for SIBO were given antibiotic treatment by their referring physician and in some cases, returned for a follow-up LBHT to assess eradication of SIBO. During the follow-up LBHT, subjects were asked which antibiotic they were given to treat their SIBO. The eradication rate of each antibiotic was evaluated. Of the 771 subjects in the database, 561 (73%) tested positive for SIBO. […] (See Table 1 below). […] None of the commonly used antibiotics was universally successful in eradicating overgrowth.

SIBO [3] = assay: Antibiotic treatment of Crohn's disease subjects with SIBO; format: in vivo, human; conditions: Crohn's subjects; pooled over the named antibiotics
Procedure: To correct for selection bias, a pilot study was conducted to determine the incidence of SIBO in subjects who had received a suspected diagnosis of Crohn's disease at Cedars-Sinai Medical Center=s IBD Center within the preceding three months.

ileal brake = conditions: rats, Brown et al. 1993, cited from earlier work

In the case of `NCCc1c[nH]c2ccc(O)cc12` [5-HT, 5-hydroxytryptamine], the “Effect of 5-HT delivered to distal gut on intestinal transit time” value (from here on “Effect of 5-HT delivered to distal gut”) (intestinal transit; 0.033 mg/kg/h × 90 min, 0 dose 68.5 ± 1.0) is reported as 69.6 ± 4.2 min, the “Effect of 5-HT delivered to distal gut” value (intestinal transit; 0.05 mg/kg/h × 90 min) is reported as 33.5 ± 1.5 min and the “Effect of 5-HT delivered to distal gut” value (intestinal transit; 0.066 mg/kg/h × 90 min) is reported as 15.2 ± 0.5 min. The marker recovery (intestinal transit; 0.1 mg/kg/h 5-HT into distal gut, Saline-Dist 76.1±1.3%) was 35.2±2.3%, the marker recovery (intestinal transit; 0.1 mg/kg/h 5-HT into proximal gut, Saline-Prox 85.0±7.3%, four dogs) was 20.1±4.5% and the “Effect of 5-HT delivered to distal gut” value (intestinal transit; 0.1 mg/kg/h × 90 min) was 16.1 ± 4.9 min. For the same molecule, the “Effect of 5-HT delivered to distal gut” value (intestinal transit; 0.3 mg/kg/h × 90 min) was 73.8 ± 0.6 min, the marker recovery (intestinal transit; 5-HT 0.05 mg/kg/h in distal gut, Buffer Control 79.4±4.1%) was 37.0±1.8% and the marker recovery (intestinal transit; 5-HT 0.05 mg/kg/h to distal gut, Buffer Control 83.3±3.3%, n=2) was 36.1±2.3%. The “proximal intestinal transit, cumulative % marker recovered” value (intestinal transit; 5-HT 0.1 mg/kg/h distal gut, Saline (i.v.)) was 28.27 ± 5.03%, the marker recovery (intestinal transit; 5-HT 0.1 mg/kg/h to distal gut, buffer control 76.1±4.7%, four dogs) was 35.2±2.2% and the marker recovery (intestinal transit; 5-HT in distal gut, 2 mg (0.033 mg/kg/h) over 90 min, buffer 81.2%, n=1) was 73.8%. The marker recovery (intestinal transit; 5-HT in distal gut, 3 mg (0.05 mg/kg/h), n=1) was 53.1%, the marker recovery (intestinal transit; 5-HT in distal gut, 4 mg (0.066 mg/kg/h), n=1) was 11.6% and the marker recovery (intestinal transit; 5-HT in proximal gut, 0.033 mg/kg/h) was “not significantly different from the buffer control”. The marker recovery (intestinal transit; 5-HT in proximal gut, 0.05 mg/kg/h) was 33.2±14.0%, the marker recovery (intestinal transit; 5-HT in proximal gut, 0.066 mg/kg/h, buffer 75.0±4.4%, four dogs) was 16.9±+3.7% and the “amount of 5-HT released by the proximal gut” value [1] was 450 µg.
In the case of `O=C(O)c1cn(C2CC2)c2cc(N3CCNCC3)c(F)cc2c1=O` [Ciprofloxacin, ciprofloxacin], the “% Patients with SIBO Eradicated” value (SIBO [2]) is reported as 50% and the “improvement in symptoms, breath test negative after antibiotic” value (SIBO [3]) is reported as 69±27%.
In the case of `Cc1ncc([N+](=O)[O-])n1CCO` [Flagyl, metronidazole], the “success in eradicating SIBO, comparison of antibiotics” value (SIBO [2]; 105 subjects with follow-up LBHT) is reported as “relatively poor choice by itself”, the “% Patients with SIBO Eradicated” value (SIBO [2]) is reported as 25% and the “improvement in symptoms, breath test negative after antibiotic” value (SIBO [3]) is reported as 69±27%. The “improvement in symptoms, subjects remaining positive on breath test after antibiotic” value (SIBO [3]) was 20±0%.
For `CN1C2CCCC1CC(NC(=O)c1nn(C)c3ccccc13)C2` (centres unmarked) [granisetron], the “ileal brake induced by ileal infusion of lipid” value (ileal brake; subcutaneous administration) is listed as “abolished the ileal brake” and the “intestinal transit of a baked bean meal” value (ileal brake; subcutaneous administration) is listed as “delayed”.
Molecule `C=CCN1CC[C@]23c4c5ccc(O)c4O[C@H]2C(=O)CC[C@@]3(O)[C@H]1C5` [naloxone] has a marker recovery (intestinal transit; 60 mM oleate in proximal gut with 3 mg naloxone) of 41.0±5.2%, a marker recovery (intestinal transit; 60 mM oleate in proximal gut with 6 mg naloxone) of 62.8±8.2% and a marker recovery (intestinal transit; 60 mM oleate in proximal gut with 12 mg naloxone) of 60.6±6.1%. It also gave a marker recovery (intestinal transit; buffer in proximal gut with 6 mg naloxone, no fat, without naloxone 81.3±6.1%, n=3) of 88.0±1.3%, a marker recovery (intestinal transit; distal gut 5-HT + naloxone 6 mg in proximal gut) of 90.1±4.6% and a marker recovery (intestinal transit; ileal brake + 6 mg naloxone to distal gut) of 29.4±5.4%. The marker recovery (intestinal transit; ileal brake + 6 mg naloxone to proximal gut) was 76.2±5.2% and the ileal brake (ileal brake) was “abolish the ileal brake”.
In the case of `NC[C@H](O)c1ccc(O)c(O)c1` [norepinephrine], the “Transit Across Proximal Gut (Cumulative % Marker Recovered)” value (intestinal transit; Buffer + NE i.v. 50 mg/30 ml/1.5 h, Buffer Control 68.5 ± 5.0, five dogs) is reported as 16.3 ± 3.4^ab % and the marker recovery (intestinal transit; intravenous norepinephrine 0.12 μg/kg/h + normal saline, Buffer Control 76.9%, n=2) is reported as 13.3%.
For `CC(C)NCC(O)COc1cccc2ccccc12` (centres unmarked) [propranolol], the “proximal intestinal transit, cumulative % marker recovered” value (intestinal transit; 60 mM oleate distal gut + Propranolol (i.v.) 50 μg/kg/h) was 66.42 ± 8.26%, the “proximal intestinal transit, cumulative % marker recovered” value (intestinal transit; 5-HT distal gut + Propranolol (i.v.) 50 μg/kg/h) was 63.85 ± 8.76% and the marker recovery (intestinal transit; distal gut 5-HT + intravenous propranolol 50 μg/kg/h) was 77.7±7.6%. For the same molecule, the marker recovery (intestinal transit; distal gut oleate + intravenous propranolol 50 μg/kg/h) was 72.1±4.7% and the marker recovery (intestinal transit; intravenous PYY + intravenous propranolol 50 μg/kg/h) was 66.3±3.1%.
